Data from patent publication US11708348B2, “Protease inhibitors for treatment of coronavirus infections” (The Scripps Research Institute, priority 2021, dated 2023).
Where two headings read alike, the source gives them in different places.

System: SARS-CoV-2 strain USA-WA1/2020
Experiment: microbe, parasite or virus in culture
Assay type: cell-based
Conditions: read-out: EC50, uM (Hela)
[1] = Severe acute respiratory syndrome coronavirus 2, HeLa-ACE2, 24 h, HeLa-ACE2 cells, SARS-CoV-2 infection, 24 h, class symbols
[2] = Severe acute respiratory syndrome coronavirus 2, HeLa-ACE2, 24 h, HeLa-ACE2 cells, SARS-CoV-2 infection, 24 h, bound printed in cell
[3] = Severe acute respiratory syndrome coronavirus 2, HeLa-ACE2, 24 h

## O=C(Nc1ccccc1F)C(=O)N1C[C@@H]2CCC[C@@H]2[C@H]1C(=O)N[C@@H](C[C@@H]1CCNC1=O)C(=O)COC(F)(F)F [Compound 256, (1S,3aR,6aS)-2-(2-((2-fluorophenyl)amino)-2-oxoacetyl)-N—((S)-3-oxo-1-((S)-2-oxopyrrolidin-3-yl)-4-(trifluoromethoxy)butan-2-yl)octahydrocyclopenta[c]pyrrole-1-carboxamide]
[1]
  EC50: < 0.05 µM

## O=C(Nc1ccccc1F)C(=O)NC1(C(=O)N[C@@H](C[C@@H]2CCNC2=O)C(=O)COC(F)(F)F)CCOCC1 [Compound 257, N1-(2-fluorophenyl)-N2-(4-(((S)-3-oxo-1-((S)-2-oxopyrrolidin-3-yl)-4-(trifluoromethoxy)butan-2-yl)carbamoyl)-tetrahydro-2H-pyran-4-yl)oxalamide]
[2]
  EC50: > 1 µM

## CO[C@@H]1C[C@@H](C(=O)N[C@@H](C[C@@H]2CCNC2=O)C(=O)COC(F)(F)F)N(C(=O)C(=O)Nc2ccccc2F)C1 [Compound 258, (2S,4R)-1-(2-((2-fluorophenyl)amino)-2-oxoacetyl)-4-methoxy-N-((S)-3-oxo-1-((S)-2-oxopyrrolidin-3-yl)-4-(trifluoromethoxy)butan-2-yl)pyrrolidine-2-carboxamide]
[2]
  EC50: > 1 µM

## C=C[C@@H]1C[C@]1(NC(=O)c1cc2cc(F)ccc2[nH]1)C(=O)N[C@@H](C[C@@H]1CCNC1=O)C(=O)COC(F)(F)F [Compound 259, 5-fluoro-N-((1R,2S)-1-(((S)-3-oxo-1-((S)-2-oxopyrrolidin-3-yl)-4-(trifluoromethoxy)butan-2-yl)carbamoyl)-2-vinylcyclopropyl)-1H-indole-2-carboxamide]
[2]
  EC50: > 1 µM

## CC[C@@H]1C[C@]1(NC(=O)c1cc2cc(F)ccc2[nH]1)C(=O)N[C@@H](C[C@@H]1CCNC1=O)C(=O)COC(F)(F)F [Compound 261, N-((1R,2R)-2-ethyl-1-(((S)-3-oxo-1-((S)-2-oxopyrrolidin-3-yl)-4-(trifluoromethoxy)butan-2-yl)carbamoyl)cyclopropyl)-5-fluoro-1H-indole-2-carboxamide]
[1]
  EC50: 0.5 to 1 µM

## COCC1(NC(=O)C(=O)N[C@@H](CC(C)C)C(=O)N[C@@H](C[C@@H]2CCNC2=O)C(=O)COC(F)(F)F)CC1 [Compound 262, Nl-(1-(methoxymethyl)-cyclopropyl)-N2-((S)-4-methyl-1-oxo-1-(((S)-3-oxo-1-((S)-2-oxopyrrolidin-3-yl)-4-(trifluoromethoxy)butan-2-yl)amino)pentan-2-yl)oxalamide]
[1]
  EC50: 0.05 to 0.2 µM

## CC(C)C[C@H](NC(=O)c1c[nH]c2cccnc12)C(=O)N[C@@H](C[C@@H]1CCNC1=O)C(=O)COC(F)(F)F [Compound 263, N-((S)-4-methyl-1-oxo-1-(((S)-3-oxo-1-((S)-2-oxopyrrolidin-3-yl)-4-(trifluoromethoxy)butan-2-yl)amino)pentan-2-yl)-1H-pyrrolo[3,2-b]pyridine-3-carboxamide]
[1]
  EC50: 0.2 to 0.5 µM

## CC(C)(C)[C@H](NC(=O)C(F)(F)F)C(=O)N1C[C@H]2[C@@H]([C@H]1C(=O)N[C@@H](C[C@@H]1CCNC1=O)C(=O)COC(F)(F)F)C2(C)C [Compound 264, (1R,2S,5S)-3-((S)-3,3-dimethyl-2-(2,2,2-trifluoroacetamido)butanoyl)-6,6-dimethyl-N—((S)-3-oxo-1-((S)-2-oxopyrrolidin-3-yl)-4-(trifluoromethoxy)butan-2-yl)-3-azabicyclo[3.1.0]hexane-2-carboxamide]
[3]
  EC50: < 0.05 µM

## O=C(Nc1ccccc1F)C(=O)N1[C@@H]2C[C@@H]2C[C@H]1C(=O)N[C@@H](C[C@@H]1CCNC1=O)C(=O)COC(F)(F)F [Compound 265, (1R,S 5R)-2-(2-((2-fluorophenyl)amino)-2-oxoacetyl)-N-((S)-3-oxo-1-((S)-2-oxopyrrolidin-3-yl)-4-(trifluoromethoxy)butan-2-yl)-2-azabicyclo-[3.1.0]-hexane-3-carboxamide]
[1]
  EC50: 0.05 to 0.2 µM

## CC(C)(C)[C@H](NC(=O)C(F)(F)F)C(=O)N1C[C@@H]2CCC[C@@H]2[C@H]1C(=O)N[C@@H](C[C@@H]1CCNC1=O)C(=O)COC(F)(F)F [Compound 266, (1S,3aR,6aS)-2-((S)-3,3-dimethyl-2-(2,2,2-trifluoroacetamido)-butanoyl)-N-((S)-3-oxo-1-((S)-2-oxopyrrolidin-3-yl)-4-(trifluoromethoxy)butan-2-yl)octahydrocyclo-penta[c]pyrrole-1-carboxamide]
[3]
  EC50: < 0.05 µM

## O=C(NCC(F)(F)F)C(=O)NC(CC1CCOCC1)C(=O)N[C@@H](C[C@@H]1CCNC1=O)C(=O)COC(F)(F)F (stereo partly drawn) [Compound 267, N1-(1-oxo-1-(((S)-3-oxo-1-((S)-2-oxopyrrolidin-3-yl)-4-(trifluoromethoxy)butan-2-yl)amino)-3-(tetrahydro-2H-pyran-4-yl)propan-2-yl)-N2-(2,2,2-trifluoroethyl)-oxalamide]
[1]
  EC50: 0.5 to 1 µM

## CC1(NC(=O)C(=O)N2C[C@@H]3CCC[C@@H]3[C@H]2C(=O)N[C@@H](C[C@@H]2CCNC2=O)C(=O)COC(F)(F)F)CC1 [Compound 270, (1S,3aR,6aS)-2-(2-((l-methylcyclopropyl)-amino)-2-oxoacetyl)-N-((S)-3-oxo-1-((S)-2-oxopyrrolidin-3-yl)-4-(trifluoromethoxy)butan-2-yl)octahydrocyclo-penta[c]pyrrole-1-carboxamide]
[1]
  EC50: 0.05 to 0.2 µM

## O=C(Nc1ccccc1F)C(=O)NC(CC1CCOCC1)C(=O)N[C@@H](C[C@@H]1CCNC1=O)C(=O)COC(F)(F)F (stereo partly drawn) [Compound 271, N1-(2-fluorophenyl)-N2-(1-oxo-1-(((S)-3-oxo-1-((S)-2-oxopyrrolidin-3-yl)-4-(trifluoromethoxy)butan-2-yl)amino)-3-(tetrahydro-2H-pyran-4-yl)propan-2-yl)oxalamide]
[1]
  EC50: < 0.05 µM

## O=C1NCC[C@H]1C[C@H](NC(=O)[C@@H]1[C@H]2CCC[C@H]2CN1C(=O)C1(NC(=O)C(F)(F)F)CCC1)C(=O)COC(F)(F)F [Compound 274, (1S,3aR,6aS)-N-((S)-3-oxo-1-((S)-2-oxopyrrolidin-3-yl)-4-(trifluoromethoxy)butan-2-yl)-2-(l-(2,2,2-trifluoroacetamido)-cyclobutane-1-carbonyl)octahydro-cyclopenta[c]pyrrole-l-carboxamide]
  EC50: 0.2 to 0.5 µM

## CC(C)C[C@H](NC(=O)c1csc(C(F)(F)F)n1)C(=O)N[C@@H](CC1CCNC1=O)C(=O)COC(F)(F)F (stereo partly drawn) [Compound 277, N-((2S)-4-methyl-1-oxo-1-(((2S)-3-oxo-1-(2-oxopyrrolidin-3-yl)-4-(trifluoromethoxy)butan-2-yl)amino)pentan-2-yl)-2-(trifluoromethyl)-thiazole-4-carboxamide]
[1]
  EC50: < 0.05 µM

## CC1(C)[C@@H]2[C@@H](C(=O)N[C@@H](C[C@@H]3CCNC3=O)C(=O)COC(F)(F)F)N(C(=O)c3cc(C(F)(F)F)on3)C[C@@H]21 [Compound 283, (1R,2S,5S)-6,6-dimethyl-N-((S)-3-oxo-1-((S)-2-oxopyrrolidin-3-yl)-4-(trifluoromethoxy)butan-2-yl)-3-(5-(trifluoromethyl)-isoxazole-3-carbonyl)-3-azabicyclo[3.1.0]-hexane-2-carboxamide]
[1]
  EC50: < 0.05 µM

## CC(C)(F)c1cc(C(=O)N2C[C@H]3[C@@H]([C@H]2C(=O)N[C@@H](C[C@@H]2CCNC2=O)C(=O)COc2c(F)c(F)cc(F)c2F)C3(C)C)no1 [Compound 284, (1R,2S,5S)-3-(5-(2-fluoropropan-2-yl)isoxazole-3-carbonyl)-6,6-dimethyl-N-((S)-3-oxo-1-((S)-2-oxopyrrolidin-3-yl)-4-(2,3,5,6-tetrafluorophenoxy)butan-2-yl)-3-azabicyclo-[3.1.0]hexane-2-carboxamide]
[1]
  EC50: 0.2 to 0.5 µM

## CC(C)(C)[C@H](NC(=O)[C@H]1CCCO1)C(=O)N1C[C@H]2[C@@H]([C@H]1C(=O)N[C@@H](C[C@@H]1CCNC1=O)C(=O)COC(F)(F)F)C2(C)C [Compound 290, (1R,2S,5S)-3-((S)-3,3-dimethyl-2-((R)-tetrahydrofuran-2-carboxamido)-butanoyl)-6,6-dimethyl-N-((S)-3-oxo-1-((S)-2-oxopyrrolidin-3-yl)-4-(trifluoromethoxy)butan-2-yl)-3-azabicyclo-[3.1.0]hexane-2-carboxamide]
[1]
  EC50: 0.2 to 0.5 µM

## CC1(C)[C@@H]2[C@@H](C(=O)N[C@@H](C[C@@H]3CCNC3=O)C(=O)COC(F)(F)F)N(C(=O)[C@H]3CCCO3)C[C@@H]21 [Compound 291, (1R,2S,5S)-6,6-dimethyl-N-((S)-3-oxo-1-((S)-2-oxopyrrolidin-3-yl)-4-(trifluoromethoxy)butan-2-yl)-3-((R)-tetrahydrofuran-2-carbonyl)-3-azabicyclo-[3.1.0]hexane-2-carboxamide]
[1]
  EC50: 0.05 to 0.2 µM

## C[C@@H]1CN(C(=O)C(=O)NC(C)(C)C(F)(F)F)C[C@H]1C(=O)N[C@@H](C[C@@H]1CCNC1=O)C(=O)COC(F)(F)F [Compound 293, (3S,4S)-4-methyl-N-((S)-3-oxo-1-((S)-2-oxopyrrolidin-3-yl)-4-(trifluoromethoxy)butan-2-yl)-1-(2-oxo-2-((1,1,1-trifluoro-2-methylpropan-2-yl)amino)acetyl)-pyrrolidine-3-carboxamide]
[2]
  EC50: > 1 µM

## CC[C@H](NC(=O)C1CC2(CC2)CO1)C(=O)N[C@@H](C[C@@H]1CCNC1=O)C(=O)COC(F)(F)F (stereo partly drawn) [Compound 294, N-((S)-1-oxo-1-(((S)-3-oxo-1-((S)-2-oxopyrrolidin-3-yl)-4-(trifluoromethoxy)butan-2-yl)amino)butan-2-yl)-5-oxaspiro[2.4]heptane-6-carboxamide]
[1]
  EC50: < 0.05 µM

## O=C1NCC[C@H]1C[C@H](NC(=O)[C@@H]1[C@H]2CCC[C@H]2CN1C(=O)C1CC2(CC2)CO1)C(=O)COC(F)(F)F (stereo partly drawn) [Compound 295, (1S,3aR,6aS)-N-((S)-3-oxo-1-((S)-2-oxopyrrolidin-3-yl)-4-(trifluoromethoxy)butan-2-yl)-2-(5-oxaspiro[2.4]heptane-6-carbonyl)octahydro-cyclopenta[c]pyrrole-1-carboxamide]
[1]
  EC50: 0.05 to 0.2 µM
